The source of these data is ChEMBL document CHEMBL4334516, “Kinase Chemodiversity from the Arctic: The Breitfussins” (J Med Chem, 2019).

The target in data set [1] is T1, Mitogen-activated protein kinase kinase kinase 11 (Homo sapiens, UniProt Q16584). Nature of the data set: Inhibition of MLK3 (unknown origin) assessed as residual enzyme activity at 5 uM by [33P]-ATP filter binding kinase assay relative to control.
Data set [2] can be described thus: Kinetic solubility in pH 7.4 aqueous buffer at 500 uM by spectrophotometry. Format: physicochemical. As to conditions: read-out: Kinetic_solubility; call rule not given here.
In data set [3] the target is T1, Mitogen-activated protein kinase kinase kinase 11. Nature of the data set: Binding affinity to wild-type human partial length MLK3 (I77 to W399 residues) expressed in bacterial expression system assessed as residual binding level at 10 uM by active-site directed competition binding assay based Kinomescan method relative to control.
Data set [4] concerns the target T2, Aurora kinase B (Homo sapiens, UniProt Q96GD4). Description: Binding affinity to wild-type human partial length AURKB (D25 to A303 residues) expressed in mammalian expression system assessed as residual binding level at 10 uM by active-site directed competition binding assay based Kinomescan method relative to control.
Data set [5] concerns the target cGMP-specific 3',5'-cyclic phosphodiesterase (Homo sapiens, UniProt O76074). Nature of the data set: Inhibition of human recombinant phosphodiesterase type 5 using [3H]cGMP and cGMP incubated for 60 mins by scintillation counting method. As to conditions: 1 h.
A short description of data set [6]: Toxicity in zebrafish embryos at 0.1 to 1396 uM after 72 hrs. On the set-up: species or system Danio rerio. As to conditions: in vivo, read-out: LD50.
Data set [7] in a line: Stability in human plasma assessed as parent compound remaining level at 5 uM incubated for 1 hr by LC-MS analysis. It is filed as ADME, cell-free. As to conditions: read-out: Stability.
A short description of data set [8]: Toxicity in zebrafish embryos assessed as induction of tail degeneration by measuring unaffected embryos level at 1.4 uM after 72 hrs (reference value: 100%). Format: tissue-based, Danio rerio. As to conditions: in vivo.
Data set [9] can be described thus: Toxicity in zebrafish embryos assessed as induction of heart edema by measuring unaffected embryos level at 14 uM after 72 hrs (reference value: 100%). As to conditions: in vivo. Format: tissue-based, Danio rerio.
A short description of data set [10]: Toxicity in zebrafish embryos assessed as induction of heart edema by measuring unaffected embryos level at 0.1 uM after 72 hrs (reference value: 100%). Format: tissue-based, Danio rerio. As to conditions: in vivo.
Data set [11] addresses 1-phosphatidylinositol 3-phosphate 5-kinase (Homo sapiens, UniProt Q9Y2I7). Nature of the data set: Binding affinity to wild-type human partial length PIKFYVE (F1512 to C2098 residues) expressed in mammalian expression system by active-site directed competition binding assay based Kinomescan method.
Data set [12] has as its target T3, Mitogen-activated protein kinase kinase kinase 9 (Homo sapiens, UniProt P80192). Nature of the data set: Binding affinity to wild-type human partial length MLK1 (V88 to W426 residues) expressed in bacterial expression system assessed as residual binding level at 10 uM by active-site directed competition binding assay based Kinomescan method relative to control.

Data set [13] deals with T3, Mitogen-activated protein kinase kinase kinase 9. Nature of the data set: Inhibition of MLK1 (unknown origin) assessed as residual enzyme activity at 50 uM by [33P]-ATP filter binding kinase assay relative to control.
Data set [14] in a line: Cytotoxicity in human RD-ES cells assessed as reduction in cell viability incubated for 72 hrs by SRB assay.
In data set [15] the target is Aurora kinase A (Homo sapiens) (UniProt O14965). Nature of the data set: Binding affinity to wild-type human partial length AURKA (E122 to K401 residues) expressed in mammalian expression system assessed as residual binding level at 10 uM by active-site directed competition binding assay based Kinomescan method relative to control.
Data set [16] concerns the target Receptor-type tyrosine-protein kinase FLT3 (Homo sapiens, UniProt P36888, N841I). Nature of the data set: Binding affinity to human partial length FLT3 N841I mutant (V592 to Y969 residues) expressed in bacterial expression system by active-site directed competition binding assay based Kinomescan method.
The nature of data set [17]: Toxicity in zebrafish embryos assessed as induction of tail degeneration by measuring unaffected embryos level at 0.1 uM after 72 hrs (reference value: 100%). Conditions: in vivo. Format: tissue-based, Danio rerio.
For data set [18], the target named is T2, Aurora kinase B. Description: Inhibition of Aurora B (unknown origin) assessed as residual enzyme activity at 1 uM by [33P]-ATP filter binding kinase assay relative to control.
Data set [19] concerns the target Serine/threonine-protein kinase pim-1 (Homo sapiens, UniProt P11309). Description: Binding affinity to wild-type human partial length PIM1 (A15 to K313 residues) expressed in bacterial expression system assessed as residual binding level at 10 uM by active-site directed competition binding assay based Kinomescan method relative to control.
Another data set deals with MDA-MB-468. Description: Cytotoxicity in human MDA-MB-468 cells assessed as reduction in cell viability incubated for 72 hrs by SRB assay. Conditions: MDA-MB-468, 72 h.
The nature of data set [20]: Solubility in assay media (PTU-E3 water). Format: physicochemical. As to conditions: buffer.
The subject of another data set is PLC-PRF-5. Nature of the data set: Cytotoxicity in human PLC/PRF/5 cells assessed as reduction in cell viability incubated for 72 hrs by SRB assay. Conditions: PLC-PRF-5, 72 h.
Data set [21] in a line: Toxicity in zebrafish embryos assessed as induction of scoliosis by measuring unaffected embryos level at 0.1 uM after 72 hrs (reference value: 100%). On the set-up: species or system Danio rerio. As to conditions: in vivo.
Data set [22] addresses Casein kinase I isoform epsilon (Homo sapiens, UniProt P49674). Nature of the data set: Binding affinity to wild-type human full length CSNK1E (M1 to K416 residues) expressed in bacterial expression system by active-site directed competition binding assay based Kinomescan method.
Data set [23] can be described thus: Toxicity in zebrafish embryos assessed as induction of general edema by measuring unaffected embryos level at 0.1 uM after 72 hrs (reference value: 100%). As to conditions: in vivo. Also on record: species or system Danio rerio.
For another data set, the system named is HT-29. Nature of the data set: Cytotoxicity in human HT-29 cells assessed as reduction in cell viability by MTS assay. It is filed as functional, cell-based. Conditions: TDE = time-dependent effect.
The target of data set [24] is T4, Mitogen-activated protein kinase kinase kinase 7 (Homo sapiens) (UniProt O43318).
T4 sequence (whole entry): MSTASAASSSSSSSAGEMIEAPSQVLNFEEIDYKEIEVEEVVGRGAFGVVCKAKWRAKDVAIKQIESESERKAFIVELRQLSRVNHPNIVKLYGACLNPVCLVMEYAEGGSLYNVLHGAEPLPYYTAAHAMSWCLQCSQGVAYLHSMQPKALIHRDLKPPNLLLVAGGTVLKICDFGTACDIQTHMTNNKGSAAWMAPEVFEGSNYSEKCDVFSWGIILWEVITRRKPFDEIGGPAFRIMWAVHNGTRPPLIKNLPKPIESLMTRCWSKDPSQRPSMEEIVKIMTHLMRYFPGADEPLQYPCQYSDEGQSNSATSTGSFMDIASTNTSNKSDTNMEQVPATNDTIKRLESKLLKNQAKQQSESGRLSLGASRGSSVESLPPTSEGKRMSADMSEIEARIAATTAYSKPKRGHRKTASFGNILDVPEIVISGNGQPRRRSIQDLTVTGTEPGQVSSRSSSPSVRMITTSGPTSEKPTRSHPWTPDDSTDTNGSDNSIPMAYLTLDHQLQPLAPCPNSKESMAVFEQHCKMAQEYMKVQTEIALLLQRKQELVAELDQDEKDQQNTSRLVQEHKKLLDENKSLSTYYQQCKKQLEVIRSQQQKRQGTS
Description: Binding affinity to wild-type human partial length TAK1 (M1 to Q303 residues) expressed in mammalian expression system assessed as residual binding level at 10 uM by active-site directed competition binding assay based Kinomescan method relative to control.

Data set [25] is described as follows: Toxicity in zebrafish embryos assessed as induction of scoliosis by measuring unaffected embryos level at 1.4 uM after 72 hrs (reference value: 100%). As to conditions: in vivo. On the set-up: species or system Danio rerio.

SMILES strings stand for the structures. Converted amounts (≈) assume the structure as drawn.

For `COc1cc(Br)cc2[nH]cc(-c3cnc(-c4ccc[nH]4)o3)c12`, the Activity in data set [1] is 7%.

As for `COc1cc2c(-c3cnc(-c4ccc[nH]4)o3)c[nH]c2cc1Br`, in data set [2], the solubility kinetic at 500 µM worked out at 156 µM (≈ 55.9 µg/mL). In addition, the Activity in [3] turned out to be 56%; at Aurora kinase B [4], 50%; in [8], 100%; in data set [9] it was 100%; in data set [10] it was 95%; in [12], 59%. The Activity in data set [13] amounted to 5%; in [15] it was 80%; in data set [17], 100%; at Aurora kinase B [18] it was 33%; in [19] it was 9.5%; in data set [21], 95%. Besides, the Activity in [23] is 100%; in the data set on HT-29, “Tde”; in [24] it was 70%; in data set [25], 89%. Besides, in [5], the “inhibition (INH)” value was “Active”. Also, in data set [6], the LC50 at 72 h came out at 1400 nM. Also, the remaining at 1 h, 5 µM in data set [7] came out at 83%. Also, the Kd in [11] was 1000 nM; in data set [16], 8900 nM; in [22], 3300 nM. Moreover, the values for the half-maximal inhibitory concentration (IC50) (in [14]; in the data set with MDA-MB-468; in the data set with PLC-PRF-5) were 2500 nM, 340 nM and 1500 nM, respectively. Also, the solubility result in [20] is on record as “Insoluble”.
